Data published in US9409905B2, “Antibacterial compounds and methods for use” (PTC THERAPEUTICS, INC., priority 2011, dated 2016).
Values after ≈ are worked out from the molar mass of the structure shown.

Key:
[1] = test system: Escherichia coli (E. coli) BAS849; assay: Antibacterial activity, microbroth dilution MIC (Table 1); type: cell-based; conditions: microbroth dilution, super sensitive Gram-negative E. coli BAS849, read-out: MIC, BAS849
How it was run: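 Read-out: visual absence of growth. The lowest concentration meeting this gives the MIC, expressed in μg/mL, with microbroth dilution as the method.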

[2] = test system: Staphylococcus aureus (S. aureus) 29213; assay: as above; type: cell-based; conditions: microbroth dilution, Gram-positive S. aureus 29213, read-out: MIC, 29213
How it was run: (§1)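 Values are MICs (μg/mL): the smallest drug amount at which macroscopically visible bacterial growth is absent under assay conditions, from a microdilution method in broth.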

E. coli 25922 = assay: as above; type: cell-based, Escherichia coli; conditions: Escherichia coli; microbroth dilution; control Gram-negative E. coli 25922 strain; read-out: MIC, 25922
How it was run: as §1

E. coli LZ3111 = assay: Antibacterial activity, MIC, quinolone resistant strain (Table 2); type: cell-based; conditions: Escherichia coli, LZ3111, read-out: MIC LZ3111
How it was run: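 Broth microdilution. Read-out: MIC in μg/mL, taken as lowest concentration with no macroscopically visible growth.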

E. coli ELZ4000 = assay: Antibacterial activity, MIC, multi-drug resistant clinical isolate (Table 3); type: cell-based; conditions: Escherichia coli, ELZ4000, read-out: MIC ELZ4000
How it was run: (§2)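 MIC (μg/mL) read as lowest concentration with no macroscopically visible growth, determined by microbroth dilution.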

E. coli ELZ4251 = assay: as above; type: cell-based; conditions: Escherichia coli
How it was run: as §2

[3] = test system: Acinetobacter baumannii (A. baumannii) BAA747; assay: Antibacterial activity, MIC (Table 4); type: cell-based; conditions: A. baumannii BAA747, read-out: MIC, BAA747
How it was run: (§3)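 MIC in μg/mL by microbroth dilution, scored as the lowest level that suppresses visible growth.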

[4] = test system: Klebsiella pneumoniae (K. pneumoniae) 35657; assay: Antibacterial activity, MIC (Table 4); type: cell-based; conditions: K. pneumoniae 35657, read-out: MIC, 35657
How it was run: as §3

A. baumannii MXX2240 = assay: Antibacterial activity, MIC, resistant strain (Table 4); type: cell-based; conditions: Acinetobacter baumannii, MXX2240; resistant A. baumannii MMX2240, multi-drug resistant clinical isolate; read-out: MIC, MMX2240
How it was run: as §3

K. pneumoniae MXX1232 = assay: as above; type: cell-based; conditions: Klebsiella pneumoniae, MXX1232; resistant K. pneumoniae MMX1232, multi-drug resistant clinical isolate; read-out: MIC, MMX1232
How it was run: as §3

[5] = test system: Pseudomonas aeruginosa (P. aeruginosa) 27853; assay: Antibacterial activity, MIC (Table 5); type: cell-based; conditions: P. aeruginosa 27853, read-out: MIC, 27853
How it was run: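 Microbroth dilution; MIC (μg/mL) = lowest concentration with no macroscopically visible growth.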

[6] = test system: Neisseria meningitidis (N. meningitidis) 13090; assay: Antibacterial activity, MIC (Table 8); type: cell-based
Text: The antibacterial activity from a microbroth dilution method may be presented as the minimum inhibitory concentration (MIC in μg/mL). The MIC value is the lowest concentration of drug which prevents macroscopically visible growth under test conditions.
Antibacterial activity of test compounds against the Gram-negative bacteria Haemophilus influenzae (H. influenzae) 49247 is shown in Table 6, Moraxella catarrhalis (M. catarrhalis) 25238 is shown in Table 7 and Neisseria meningitidis (N. meningitidis) 13090 is shown in Table 8.

Structure (SMILES) | MIC [1] [µg/mL] | MIC [2] [µg/mL] | MIC (E. coli 25922) [µg/mL] | MIC (E. coli LZ3111) [µg/mL] | MIC (E. coli ELZ4000) [µg/mL] | MIC (E. coli ELZ4251) [µg/mL] | MIC [3] [µg/mL] | MIC [4] [µg/mL] | MIC (A. baumannii MXX2240) [µg/mL] | MIC (K. pneumoniae MXX1232) [µg/mL] | MIC [5] [µg/mL] | MIC [6] [µg/mL]
CCc1cc(C(=O)O)c(=O)[nH]c1-c1ccc2c(c1)cc(CCN(C)C)n2C [Cpd 161, 6-(2-(2-(dimethylamino)ethyl)-1-methyl-1H-indol-5-yl)-5-ethyl-2-oxo-1,2-dihydropyridine-3-carboxylic acid] | < 1 | 12.5 to 150 (≈ 34 to 408 µM) | < 1 | 12.5 to 150 (≈ 34 to 408 µM) | 12.5 to 150 (≈ 34 to 408 µM) | 12.5 to 150 (≈ 34 to 408 µM) | 3.5 to 12.5 (≈ 9.53 to 34 µM) | < 1 | 12.5 to 150 (≈ 34 to 408 µM) | 12.5 to 150 (≈ 34 to 408 µM) | 3.5 to 12.5 (≈ 9.53 to 34 µM) | –
CCc1c(-c2ccc3c(c2)cc(CN2CCCC2)n3C)[nH]c(=O)c(C(=O)O)c1O [Cpd 164, 5-ethyl-4-hydroxy-6-(1-methyl-2-(pyrrolidin-1-ylmethyl)-1H-indol-5-yl)-2-oxo-1,2-dihydropyridine-3-carboxylic acid] | < 1 | 3.5 to 12.5 (≈ 8.85 to 31.6 µM) | < 1 | 3.5 to 12.5 (≈ 8.85 to 31.6 µM) | 12.5 to 150 (≈ 31.6 to 379 µM) | 12.5 to 150 (≈ 31.6 to 379 µM) | < 1 | 3.5 to 12.5 (≈ 8.85 to 31.6 µM) | 3.5 to 12.5 (≈ 8.85 to 31.6 µM) | 12.5 to 150 (≈ 31.6 to 379 µM) | 3.5 to 12.5 (≈ 8.85 to 31.6 µM) | –
CCc1c(-c2ccc3c(c2)cc(CN2CCC(O)C2)n3C)[nH]c(=O)c(C(=O)O)c1O (centres unmarked) [Cpd 178, 5-ethyl-4-hydroxy-6-(2-((3-hydroxypyrrolidin-1-yl)methyl)-1-methyl-1H-indol-5-yl)-2-oxo-1,2-dihydropyridine-3-carboxylic acid] | < 1 | 3.5 to 12.5 (≈ 8.51 to 30.4 µM) | < 1 | 3.5 to 12.5 (≈ 8.51 to 30.4 µM) | 12.5 to 150 (≈ 30.4 to 365 µM) | 12.5 to 150 (≈ 30.4 to 365 µM) | 1 to 3.5 (≈ 2.43 to 8.51 µM) | 3.5 to 12.5 (≈ 8.51 to 30.4 µM) | 12.5 to 150 (≈ 30.4 to 365 µM) | 12.5 to 150 (≈ 30.4 to 365 µM) | 3.5 to 12.5 (≈ 8.51 to 30.4 µM) | –
CCc1c(-c2ccc3c(c2)cc2n3CCC2N2CCCC2)[nH]c(=O)c(C(=O)O)c1O (centres unmarked) [Cpd 304, 5-ethyl-4-hydroxy-2-oxo-6-(1-(pyrrolidin-1-yl)-2,3-dihydro-1H-pyrrolo[1,2-a]indol-7-yl)-1,2-dihydropyridine-3-carboxylic acid] | < 1 | 12.5 to 150 (≈ 30.7 to 368 µM) | < 1 | 3.5 to 12.5 (≈ 8.59 to 30.7 µM) | 12.5 to 150 (≈ 30.7 to 368 µM) | 12.5 to 150 (≈ 30.7 to 368 µM) | 1 to 3.5 (≈ 2.45 to 8.59 µM) | 3.5 to 12.5 (≈ 8.59 to 30.7 µM) | 12.5 to 150 (≈ 30.7 to 368 µM) | 12.5 to 150 (≈ 30.7 to 368 µM) | 12.5 to 150 (≈ 30.7 to 368 µM) | –
Cc1c(-c2ccc3c(c2)cc(CNC2CCC2)n3C)[nH]c(=O)c(C(=O)O)c1O [Cpd 354, 6-(2-((cyclobutylamino)methyl)-1-methyl-1H-indol-5-yl)-4-hydroxy-5-methyl-2-oxo-1,2-dihydropyridine-3-carboxylic acid] | < 1 | 12.5 to 150 (≈ 32.8 to 393 µM) | 1 to 3.5 (≈ 2.62 to 9.18 µM) | < 1 | 3.5 to 12.5 (≈ 9.18 to 32.8 µM) | < 1 | 1 to 3.5 (≈ 2.62 to 9.18 µM) | 1 to 3.5 (≈ 2.62 to 9.18 µM) | < 1 | 12.5 to 150 (≈ 32.8 to 393 µM) | 12.5 to 150 (≈ 32.8 to 393 µM) | < 1
Cc1c(-c2ccc3c(c2)cc2n3CC(N)C2)[nH]c(=O)c(C(=O)O)c1O.Cl (centres unmarked) [Cpd 412, 6-(2-amino-2,3-dihydro-1H-pyrrolo[1,2-a]indol-7-yl)-4-hydroxy-5-methyl-2-oxo-1,2-dihydropyridine-3-carboxylic acid hydrochloride] | 1 to 3.5 | 12.5 to 150 | 3.5 to 12.5 | 1 to 3.5 | 3.5 to 12.5 | 3.5 to 12.5 | 12.5 to 150 | 3.5 to 12.5 | 12.5 to 150 | 12.5 to 150 | 12.5 to 150 | 1 to 3.5
CNC1Cc2cc3cc(-c4[nH]c(=O)c(C(=O)O)c(O)c4C)ccc3n2C1.Cl (centres unmarked) [Cpd 415, 4-hydroxy-5-methyl-6-(2-(methylamino)-2,3-dihydro-1H-pyrrolo[1,2-a]indol-7-yl)-2-oxo-1,2-dihydropyridine-3-carboxylic acid hydrochloride] | 1 to 3.5 | 12.5 to 150 | 3.5 to 12.5 | < 1 | 3.5 to 12.5 | 1 to 3.5 | 12.5 to 150 | 3.5 to 12.5 | 3.5 to 12.5 | 12.5 to 150 | 12.5 to 150 | 1 to 3.5
CCc1c(-c2ccc3cc[nH]c3c2)[nH]c(=O)c(C(=O)O)c1O [Cpd 423, 5-ethyl-4-hydroxy-6-(1H-indol-6-yl)-2-oxo-1,2-dihydropyridine-3-carboxylic acid] | < 1 | 1 to 3.5 (≈ 3.35 to 11.7 µM) | < 1 | 1 to 3.5 (≈ 3.35 to 11.7 µM) | 3.5 to 12.5 (≈ 11.7 to 41.9 µM) | 1 to 3.5 (≈ 3.35 to 11.7 µM) | < 1 | < 1 | 1 to 3.5 (≈ 3.35 to 11.7 µM) | 12.5 to 150 (≈ 41.9 to 503 µM) | 3.5 to 12.5 (≈ 11.7 to 41.9 µM) | < 1
